# Values of other authors in US6919335B2, “Heterocycles that are inhibitors of IMPDH enzyme” (Bristol-Myers Squibb Co., priority 2000, dated 2005).
# Where two headings read alike, the source gives them in different places.
# Legend:
# [1] = system: antigen-specific T lymphocyte responses; conditions: for % inhibition of proliferation: Rol plus MPA; for synergistic effect on inhibition of antigen-induced proliferation: in combination with Rol 10^−7 M; for approximate IC10: inhibition of antigen-induced proliferation
# IMPDH types I and II = conditions: RT-PCR, low and high concentrations, alone or both
# [2] = system: proinflammatory cytokines (IL-2, IL-4, and IFN); conditions: RT-PCR; Rol 10^−7 M, MPA 10^−8 M, or the combination
compound,measurement,setting,value
"COc1c(C)c2c(c(O)c1C/C=C(\C)CCC(=O)O)C(=O)OC2 [MPA, mycophenolic acid]",% inhibition of proliferation,"[1]; with deoxyguanosine (antagonist of MPA on IMPDH), p<0.05",35±12%
same,% inhibition of proliferation,[1]; without deoxyguanosine,81±16%
same,synergistic effect on inhibition of antigen-induced proliferation,[1],marked synergistic effect
same,gene expression for IMPDH types I and II,IMPDH types I and II,remained unaffected
same,downregulation in the generation of proinflammatory cytokines,[2],no significant downregulation
CCCC(=O)Nc1ncnc2c1ncn2[C@@H]1O[C@@H]2COP(=O)(O)O[C@H]2[C@H]1OC(=O)CCC [dibuteryl-cAMP],approximate IC10,[1],~2e-06 M
"COc1ccc(C2CNC(=O)C2)cc1OC1CCCC1 (stereo not shown) [rolipram, 4-[3-(cyclopentyloxy)-4-methoxy-phenyl]-2-pyrrolidinone]",approximate IC10,[1],~10^−7 M
same,gene expression for IMPDH types I and II,IMPDH types I and II,remained unaffected
same,downregulation in the generation of proinflammatory cytokines,[2],no significant downregulation
C=CC[C@@H]1/C=C(\C)C[C@H](C)C[C@H](OC)[C@H]2O[C@@](O)(C(=O)C(=O)N3CCCC[C@H]3C(=O)O[C@H](/C(C)=C/[C@@H]3CC[C@@H](O)[C@H](OC)C3)[C@H](C)[C@@H](O)CC1=O)[C@H](C)C[C@@H]2OC [tacrolimus],synergistic effect on inhibition of antigen-induced proliferation,[1],little or no synergistic effect
